Test results taken from ChEMBL document CHEMBL1201862, “PubChem BioAssay data set” (2004).
Active and inactive are the calls of the source.

Legend:
[1] = target: T1, DNA repair protein RAD52 homolog (Homo sapiens, UniProt P43351); assay type: functional, biochemical
T1 sequence (P43351 whole entry): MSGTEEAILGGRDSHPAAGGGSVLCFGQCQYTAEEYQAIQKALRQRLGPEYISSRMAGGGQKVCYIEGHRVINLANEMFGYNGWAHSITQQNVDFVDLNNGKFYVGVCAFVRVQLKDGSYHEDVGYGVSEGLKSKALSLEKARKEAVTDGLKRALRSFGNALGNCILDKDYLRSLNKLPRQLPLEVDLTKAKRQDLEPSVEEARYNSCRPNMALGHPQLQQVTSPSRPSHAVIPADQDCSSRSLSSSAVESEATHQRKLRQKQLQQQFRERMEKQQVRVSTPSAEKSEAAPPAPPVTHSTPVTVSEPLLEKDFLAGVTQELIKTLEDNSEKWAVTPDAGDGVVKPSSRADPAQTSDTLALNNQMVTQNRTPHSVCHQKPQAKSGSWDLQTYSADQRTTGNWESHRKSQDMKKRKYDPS

Mu-type opioid receptor = Mu-type opioid receptor (Homo sapiens, UniProt P35372); assay type: functional, cell-based;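 note: U2OS cells with beta-arrestin recruitment to OPRM1 by beta-gal complementation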
[2] = target: 5-hydroxytryptamine receptor 2A (Mus musculus, UniProt P35363); assay type: functional, cell-based;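 note: CHO-K1 cells with tagged receptor and beta-arrestin; agonist potency measured as compound-induced activation of the receptor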
[3] = target: T2, Lysine-specific demethylase 4C (Homo sapiens, UniProt Q9H3R0); assay: inhibition of JMJD2C H3K9me3 demethylation – biochemical, DELFIA europium, cherry-picked samples, dose response (AID 488835); assay type: functional
T2 sequence (Q9H3R0 whole entry): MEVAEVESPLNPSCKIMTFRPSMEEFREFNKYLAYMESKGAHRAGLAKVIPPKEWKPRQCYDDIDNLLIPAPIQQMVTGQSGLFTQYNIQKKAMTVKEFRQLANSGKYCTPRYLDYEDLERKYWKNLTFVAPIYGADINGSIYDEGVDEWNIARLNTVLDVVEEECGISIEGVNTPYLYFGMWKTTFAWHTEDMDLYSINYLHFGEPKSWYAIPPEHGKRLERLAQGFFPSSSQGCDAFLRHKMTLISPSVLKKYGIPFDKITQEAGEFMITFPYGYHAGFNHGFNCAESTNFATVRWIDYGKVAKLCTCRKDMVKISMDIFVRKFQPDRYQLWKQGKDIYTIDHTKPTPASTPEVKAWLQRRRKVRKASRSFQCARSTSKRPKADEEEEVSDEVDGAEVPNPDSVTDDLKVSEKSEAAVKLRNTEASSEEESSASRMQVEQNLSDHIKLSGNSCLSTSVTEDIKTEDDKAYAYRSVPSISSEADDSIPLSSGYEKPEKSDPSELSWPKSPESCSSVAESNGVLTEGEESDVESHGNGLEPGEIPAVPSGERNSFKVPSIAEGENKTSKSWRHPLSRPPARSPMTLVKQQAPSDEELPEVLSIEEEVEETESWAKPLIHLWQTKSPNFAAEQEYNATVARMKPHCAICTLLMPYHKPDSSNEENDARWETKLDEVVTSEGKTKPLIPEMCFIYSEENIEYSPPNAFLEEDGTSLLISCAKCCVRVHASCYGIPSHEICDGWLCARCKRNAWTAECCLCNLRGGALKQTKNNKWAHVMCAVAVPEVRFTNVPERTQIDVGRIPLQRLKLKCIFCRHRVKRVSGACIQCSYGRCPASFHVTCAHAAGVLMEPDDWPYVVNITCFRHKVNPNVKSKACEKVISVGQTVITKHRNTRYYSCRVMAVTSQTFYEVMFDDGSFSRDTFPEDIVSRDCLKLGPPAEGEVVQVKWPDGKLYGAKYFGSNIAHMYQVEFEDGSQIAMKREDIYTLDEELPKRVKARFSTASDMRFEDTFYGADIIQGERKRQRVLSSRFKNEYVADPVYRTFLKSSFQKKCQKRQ

Major prion protein = Major prion protein (Homo sapiens, UniProt P04156); assay type: functional, cell-based
cells [4] = assay: cells
Beta-galactosidase = Beta-galactosidase (Escherichia coli, UniProt Q8VNN2); assay: Dose response counterscreen for EBI2 assay utilizing the enzyme, b-galactosidase.; assay type: functional
[5] = viability loss in HepG2 hepatoma cells – cell-based, ATP luminescence, cherry-pick, activator set 2, cytotoxicity control, dose response (AID 1053143); assay type: functional
[6] = target: T3, Short transient receptor potential channel 4 (Mus musculus, UniProt Q9QUQ5); assay: block of DAMGO-driven TRPC4 calcium entry – cell-based, HEK293 TRPC4/mu-opioid, Fluo-4 calcium, dose response (AID 434942); assay type: functional;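 note: potency of inhibitors blocking the TRPC4 calcium response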
T3 sequence (Q9QUQ5 whole entry): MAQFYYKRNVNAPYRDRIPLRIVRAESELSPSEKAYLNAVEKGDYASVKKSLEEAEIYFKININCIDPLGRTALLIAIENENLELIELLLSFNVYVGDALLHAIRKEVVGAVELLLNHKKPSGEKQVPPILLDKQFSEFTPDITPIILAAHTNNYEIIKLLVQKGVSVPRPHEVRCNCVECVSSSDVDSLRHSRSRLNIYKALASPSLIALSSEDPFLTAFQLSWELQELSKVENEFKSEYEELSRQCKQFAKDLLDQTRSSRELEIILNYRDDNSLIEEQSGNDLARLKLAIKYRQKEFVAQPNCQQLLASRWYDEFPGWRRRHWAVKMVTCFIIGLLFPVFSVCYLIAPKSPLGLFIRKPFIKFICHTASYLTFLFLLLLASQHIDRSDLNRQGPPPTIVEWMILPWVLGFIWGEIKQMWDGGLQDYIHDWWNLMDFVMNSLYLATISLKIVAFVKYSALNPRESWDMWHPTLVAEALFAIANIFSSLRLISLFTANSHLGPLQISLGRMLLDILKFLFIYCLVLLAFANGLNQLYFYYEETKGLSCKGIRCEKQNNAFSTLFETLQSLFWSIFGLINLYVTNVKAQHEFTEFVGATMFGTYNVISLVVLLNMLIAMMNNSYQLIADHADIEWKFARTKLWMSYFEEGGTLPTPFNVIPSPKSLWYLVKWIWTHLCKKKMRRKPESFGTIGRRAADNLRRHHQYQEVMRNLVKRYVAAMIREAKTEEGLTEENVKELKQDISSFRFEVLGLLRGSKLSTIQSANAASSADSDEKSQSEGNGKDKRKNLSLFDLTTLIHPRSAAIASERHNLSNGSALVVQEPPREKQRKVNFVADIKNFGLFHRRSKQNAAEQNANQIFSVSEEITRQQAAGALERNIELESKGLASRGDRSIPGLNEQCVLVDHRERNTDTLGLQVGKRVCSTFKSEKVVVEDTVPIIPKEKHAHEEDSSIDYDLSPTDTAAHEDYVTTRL

[7] = target: T4, NAD-dependent protein deacylase sirtuin-5, mitochondrial (Homo sapiens, UniProt Q9NXA8); assay: sirtuin-5 deacylation blockers, concentration series – biochemical, fluorescence imaging, cherry-pick, set 5, dose response (AID 720591);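 note: desuccinylation of succinyl peptide AMC substrate read as fluorescence after trypsin release; potency of inhibitors that lower fluorescence and may act on trypsin instead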
[8] = A Cell-Based Confirmatory Screen for Compounds that Inhibit VEEV, TC-83 (3).; assay type: functional
[9] = viability of Vero 76 cells – cell-based, set 3, cytotoxicity control, dose response (AID 602439); assay type: functional; conditions: Venezuelan equine encephalitis virus
[10] = inhibitors of non-replicating M. tuberculosis, dose response, luciferase, dry powder (AID 651619); assay type: functional; conditions: Mycobacterium tuberculosis
[11] = inhibitors of non-replicating M. tuberculosis, dose response, luciferase, dry powder (AID 651620); assay type: functional; conditions: Mycobacterium tuberculosis
[12] = target: T5, Disintegrin and metalloproteinase domain-containing protein 17 (Homo sapiens, UniProt P78536); assay: exosite inhibitors of ADAM17, dose response, biochemical (AID 743260)
[13] = potency of ADAM10 substrate cleavage blockers – biochemical, QFRET, dose response (AID 743254);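 note: ADAM10 enzyme with the DM2 quenched FRET peptide as substrate; EDANS fluorescence gain as the protease cuts the substrate; inhibitor potency against ADAM10 proteolytic activity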
[14] = target: T5, Disintegrin and metalloproteinase domain-containing protein 17; assay: inhibition of ADAM17 substrate cleavage – biochemical, quenched FRET substrate, counter-screen for ADAM10 exosite inhibitor project, dose response (AID 743253)
[15] = target: T6, Oxysterols receptor LXR-beta (Homo sapiens, UniProt P55055); assay type: functional, cell-based
HeLa = assay: viability loss in HeLa cells – cell-based, ATP luminescence, cherry-pick samples, cytotoxicity control, dose response (AID 687004); assay type: functional; conditions: Homo sapiens
HEK293 = assay: viability loss in HEK293T cells – cell-based, ATP luminescence, cherry-pick samples, cytotoxicity control, dose response (AID 687005); assay type: functional; conditions: Homo sapiens;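 note: cells exposed to compound for 48 hours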
[16] = HEK293 Cytotoxicity Assay Measured in Cell-Based System Using Plate Reader - 7071-01_Inhibitor_Dose_CherryPick_Activity_Set2.; assay type: functional
[17] = T. cruzi growth inhibition in host cells, dose response, cell-based, plate reader, dry powder, set 2 (AID 652275); assay type: functional
[18] = anti-trypanosomal activity in BESM host cells – imaging, CA-I/72 strain, bovine embryo skeletal muscle, dry powder, dose response (AID 651885); assay type: functional, cell-based
[19] = inhibition of bursicon-driven LGR2 cAMP signaling – cell-based, HEK293, CRE-luciferase reporter, cherry pick, dose response (AID 743342); assay type: functional
[20] = A549 cell cytotoxicity, dose response, cytotoxicity control, plate reader, cherry-pick, antagonist series (AID 743412); assay type: functional, cell-based
Protein Wnt-3a = Protein Wnt-3a (Mus musculus, UniProt P27467); assay: SAR analysis of small molecule antagonists of Gli-SUFU in a Wnt3a luminescent reporter assay.; assay type: functional
Fatty acid synthase = Fatty acid synthase (Homo sapiens, UniProt P49327); assay: inhibition of human FAS-TE enzyme activity – biochemical, endpoint fluorescence intensity, powder samples, SAR follow-up (AID 652164); assay type: functional
[21] = target: T4, NAD-dependent protein deacylase sirtuin-5, mitochondrial; assay: blockers of sirtuin-5 peptide desuccinylation – biochemical, fluorescence imaging, cherry-pick, set 6, dose response (AID 720597)
[22] = viability loss in HEK293 kidney cells – cell-based, cherry-picks, set 5, cytotoxicity control, dose response (AID 1053117); assay type: functional
[23] = blockers of FN fibrillogenesis by fibroblasts – AH1F cells, Alexa488-FN fluorescence, cherry-picks, dose response (AID 1035475); assay type: functional, cell-based
[24] = CTGF mRNA reduction in DLD1 cells – cell-based, DLD1 colon cancer, RT-qPCR, cherry-pick, dose response (AID 1053122); assay type: functional; conditions: Cancer cell lines
[25] = YAP1 overexpression rescue of CTGF inhibition – DLD1 cells, RT-qPCR, cherry-pick, mechanism study for YAP1 pathway inhibitor project, dose response (AID 1053127); assay type: functional, cell-based; conditions: DLD-1
[26] = target: T6, Oxysterols receptor LXR-beta; assay type: functional, cell-based; remark: listed apart in the source
cells [27] = assay: cells; remark: listed apart in the source

SMILES: NCC(O)c1cc(O)c(O)cc1F (centres undefined)
- AC50 [1]: 6.44 µM (active)
- EC50 (Mu-type opioid receptor): 92.6 µM (inactive)
- EC50 [2]: 0.724 µM (active)
- AC50 [3]: 11.2 µM (active)

SMILES: O=C(C1=C(O)C(=O)N(CCN2CCOCC2)C1c1cccc(F)c1)c1cc2ccccc2o1 (centres undefined)
- IC50 (Major prion protein): 6.77 µM (active)
- IC50 (cells [4]): > 138 µM (inactive)

SMILES: CS(=O)(=O)N(CC(=O)NCCSc1ccc(Cl)cc1)c1ccc2c(c1)OCO2
- IC50 (Beta-galactosidase): > 80 µM (inactive)

SMILES: Cc1nc2ccccc2n1CC(O)COc1ccccc1Cl (centres undefined)
- AC50 [5]: > 52 µM (inactive)
- EC50 [6]: 3.35 µM (active)

SMILES: O=C(CCC(=O)OCc1ccc(Br)cc1)Nc1ccccc1
- AC50 [7]: > 30 µM (inactive)

SMILES: Cc1cc(Cc2cc(C)cc(C(C)(C)C)c2O)c(O)c(Cc2cc(C)cc(C(C)(C)C)c2O)c1
- IC50 [8]: > 25 µM (active)
- CC50 [9]: 43.1 µM (active)

SMILES: CSc1nnc(-c2ccccc2)o1
- IC90 [10]: 125 µM (active)
- IC90 [11]: 125 µM (active)

SMILES: COc1cccc(C2C(C#N)=C(N)Oc3c2oc(CO)cc3=O)c1 (centres undefined)
- IC50 [12]: > 69.5 µM (inactive)

SMILES: O=C(Nc1ccc2c(c1)OCCO2)C(c1ccnc2ccccc12)N1CCC(Cc2ccccc2)CC1 (centres undefined)
- IC50 [13]: > 69.5 µM (inactive)
- IC50 [14]: > 69.5 µM (inactive)

SMILES: Nc1c(OS(=O)(=O)c2ccccc2)cccc1OS(=O)(=O)c1ccccc1
- EC50 [15]: > 67.5 µM (inactive)

SMILES: O=C(CN1CCOCC1)N1CC[C@@H]2[C@@H](CO)Nc3ccc(-c4ccccc4F)cc3[C@@H]21
- AC50 (HeLa): < 0.195 µM (active)

SMILES: Cc1ccc(S(=O)(=O)N2CC[C@@H]3[C@H]2c2cc(-c4ccccc4F)ccc2N[C@@H]3CO)cc1
- AC50 (HEK293): > 47 µM (inactive)
- AC50 [16]: > 47 µM (inactive)

SMILES: CC(C)N1C[C@H](C)[C@@H](CN(C)Cc2ccc(Cl)cc2)Oc2c(NC(=O)c3ccncc3)cccc2C1=O
- AC50 [17]: 0.000541 µM (active)
- IC50 [18]: 0.00107 µM (active)

SMILES: C[C@H](CO)N1C[C@H](C)[C@H](CN(C)C(=O)Nc2ccccc2)OCCCC[C@H](C)Oc2ccc(NC(=O)CCC(F)(F)F)cc2C1=O
- AC50 [19]: 13.9 µM (active)
- AC50 [20]: > 52 µM (inactive)

SMILES: O=C(Nc1cc(N2CCCC2)ncn1)c1cccc(F)c1
- IC50 (Protein Wnt-3a): > 21.8 µM (inactive)

SMILES: CC1CCN(S(=O)(=O)c2ccc(-c3csc(NC(=O)C4CC4)n3)cc2)CC1
- IC50 (Fatty acid synthase): > 80 µM (inactive)

SMILES: CCC(=O)N1CC[C@@H]2[C@@H](CO)Nc3ccc(C#Cc4cccnc4)cc3[C@@H]21
- AC50 [21]: > 30 µM (inactive)

SMILES: COc1cccc(-c2ccc3c(c2)[C@@H]2[C@@H](CCN2S(=O)(=O)c2cccc(OC)c2)[C@H](CO)N3)c1
- AC50 [22]: 30.5 µM (active)
- AC50 [23]: 57.8 µM (active)

SMILES: O=C(Cc1ccncc1)N1CCCCN2[C@H](CO)[C@H](c3ccc(C#Cc4ccccc4F)cc3)[C@@H]2C1
- AC50 [24]: 5.41 µM (active)
- AC50 [25]: 7.5 µM (active)

SMILES: Fc1cccc(F)c1/C=N/Nc1ccccn1
- EC50 [26]: > 67.5 µM (inactive)
- EC50 (cells [27]): > 67.5 µM (inactive)
